Assay results taken from the NIST ThermoML archive (doi:10.1016/j.jct.2016.07.017).
± gives the expanded uncertainty stated by the source.

Assays:
[1] = for viscosity / mass density: 101.33 kPa; for viscosity / mass density / surface tension liquid-gas: Liquid; for viscosity: Falling or rolling sphere viscometry; for mass density: Vibrating tube method; for surface tension liquid-gas: Ring tensiometer
[2] = activity coefficient (dimensionless); of the first substance listed, at infinite dilution; xn = mol fraction of the nth substance listed; conditions: 101.33 kPa, Liquid, Chromatography, x1 = 0

CC[N+](C)(CC)CCOC.O=S(=O)([N-]S(=O)(=O)C(F)(F)F)C(F)(F)F
viscosity ([1]; 288.15 K): 120.6 ± 4.1 mPa·s
mass density ([1]; 288.15 K): 1416.6 ± 1.1 kg/m3
viscosity ([1]; 298.15 K): 70.96 ± 1.7 mPa·s
mass density ([1]; 298.15 K): 1407.33 ± 1.1 kg/m3
surface tension liquid-gas ([1]; 298.15 K): 33.6 ± 0.8 mN/m
viscosity ([1]; 308.15 K): 45.36 ± 1 mPa·s
mass density ([1]; 308.15 K): 1398.12 ± 1.1 kg/m3
surface tension liquid-gas ([1]; 308.15 K): 32.6 ± 0.8 mN/m
viscosity ([1]; 318.15 K): 30.96 ± 0.68 mPa·s
mass density ([1]; 318.15 K): 1389 ± 1.1 kg/m3
surface tension liquid-gas ([1]; 318.15 K): 32.1 ± 0.7 mN/m
viscosity ([1]; 328.15 K): 22.23 ± 0.49 mPa·s
mass density ([1]; 328.15 K): 1379.94 ± 1.1 kg/m3
surface tension liquid-gas ([1]; 328.15 K): 31.6 ± 0.7 mN/m
viscosity ([1]; 338.15 K): 16.58 ± 0.36 mPa·s
mass density ([1]; 338.15 K): 1370.78 ± 1.1 kg/m3
surface tension liquid-gas ([1]; 338.15 K): 31.3 ± 0.7 mN/m
viscosity ([1]; 348.15 K): 12.79 ± 0.28 mPa·s
mass density ([1]; 348.15 K): 1361.55 ± 1.1 kg/m3
viscosity ([1]; 358.15 K): 10.18 ± 0.22 mPa·s
mass density ([1]; 358.15 K): 1352.39 ± 1.1 kg/m3
viscosity ([1]; 368.15 K): 8.19 ± 0.18 mPa·s
mass density ([1]; 368.15 K): 1343.38 ± 1.1 kg/m3
Glass transition temperature ([1]; Glass, DSC): -93.7 ± 0.8 °C

c1ccccc1 [benzene] + CC[N+](C)(CC)CCOC.O=S(=O)([N-]S(=O)(=O)C(F)(F)F)C(F)(F)F
activity coefficient ([2]; 318.15 K): 1.03 ± 0.08
activity coefficient ([2]; 328.15 K): 1.04 ± 0.09
activity coefficient ([2]; 338.15 K): 1.05 ± 0.09
activity coefficient ([2]; 348.15 K): 1.07 ± 0.09
activity coefficient ([2]; 358.15 K): 1.07 ± 0.09

C=Cc1ccccc1 [styrene] + CC[N+](C)(CC)CCOC.O=S(=O)([N-]S(=O)(=O)C(F)(F)F)C(F)(F)F
activity coefficient ([2]; 318.15 K): 1.3 ± 0.11
activity coefficient ([2]; 328.15 K): 1.3 ± 0.11
activity coefficient ([2]; 338.15 K): 1.31 ± 0.11
activity coefficient ([2]; 348.15 K): 1.34 ± 0.11
activity coefficient ([2]; 358.15 K): 1.36 ± 0.11

c1ccsc1 [thiophene] + CC[N+](C)(CC)CCOC.O=S(=O)([N-]S(=O)(=O)C(F)(F)F)C(F)(F)F
activity coefficient ([2]; 318.15 K): 0.906 ± 0.075
activity coefficient ([2]; 328.15 K): 0.912 ± 0.075
activity coefficient ([2]; 338.15 K): 0.925 ± 0.076
activity coefficient ([2]; 348.15 K): 0.937 ± 0.077
activity coefficient ([2]; 358.15 K): 0.94 ± 0.077

CCC[N+](=O)[O-] [1-nitropropane] + CC[N+](C)(CC)CCOC.O=S(=O)([N-]S(=O)(=O)C(F)(F)F)C(F)(F)F
activity coefficient ([2]; 318.15 K): 0.78 ± 0.066
activity coefficient ([2]; 328.15 K): 0.778 ± 0.065
activity coefficient ([2]; 338.15 K): 0.775 ± 0.065
activity coefficient ([2]; 348.15 K): 0.772 ± 0.065
activity coefficient ([2]; 358.15 K): 0.77 ± 0.065

Cc1ccccc1C [1,2-dimethylbenzene] + CC[N+](C)(CC)CCOC.O=S(=O)([N-]S(=O)(=O)C(F)(F)F)C(F)(F)F
activity coefficient ([2]; 318.15 K): 1.93 ± 0.17
activity coefficient ([2]; 328.15 K): 1.94 ± 0.17
activity coefficient ([2]; 338.15 K): 1.95 ± 0.17
activity coefficient ([2]; 348.15 K): 1.96 ± 0.17
activity coefficient ([2]; 358.15 K): 1.97 ± 0.17

CC(C)CC(C)(C)C [2,2,4-trimethylpentane] + CC[N+](C)(CC)CCOC.O=S(=O)([N-]S(=O)(=O)C(F)(F)F)C(F)(F)F
activity coefficient ([2]; 318.15 K): 25.7 ± 2.2
activity coefficient ([2]; 328.15 K): 23.8 ± 2.1
activity coefficient ([2]; 338.15 K): 21.7 ± 1.9
activity coefficient ([2]; 348.15 K): 21 ± 1.8
activity coefficient ([2]; 358.15 K): 20 ± 1.7

C#CCCCC [1-hexyne] + CC[N+](C)(CC)CCOC.O=S(=O)([N-]S(=O)(=O)C(F)(F)F)C(F)(F)F
activity coefficient ([2]; 318.15 K): 3.11 ± 0.27
activity coefficient ([2]; 328.15 K): 3.11 ± 0.27
activity coefficient ([2]; 338.15 K): 3.1 ± 0.27
activity coefficient ([2]; 348.15 K): 3.1 ± 0.27
activity coefficient ([2]; 358.15 K): 3.08 ± 0.27

CC(C)O [propan-2-ol] + CC[N+](C)(CC)CCOC.O=S(=O)([N-]S(=O)(=O)C(F)(F)F)C(F)(F)F
activity coefficient ([2]; 318.15 K): 2.04 ± 0.18
activity coefficient ([2]; 328.15 K): 1.84 ± 0.16
activity coefficient ([2]; 338.15 K): 1.7 ± 0.14
activity coefficient ([2]; 348.15 K): 1.56 ± 0.13
activity coefficient ([2]; 358.15 K): 1.44 ± 0.12

C#CCCCCCC [1-octyne] + CC[N+](C)(CC)CCOC.O=S(=O)([N-]S(=O)(=O)C(F)(F)F)C(F)(F)F
activity coefficient ([2]; 318.15 K): 6.47 ± 0.56
activity coefficient ([2]; 328.15 K): 6.36 ± 0.55
activity coefficient ([2]; 338.15 K): 6.21 ± 0.54
activity coefficient ([2]; 348.15 K): 6.11 ± 0.53
activity coefficient ([2]; 358.15 K): 5.97 ± 0.52

CCCOCCC [dipropyl ether] + CC[N+](C)(CC)CCOC.O=S(=O)([N-]S(=O)(=O)C(F)(F)F)C(F)(F)F
activity coefficient ([2]; 318.15 K): 6.84 ± 0.59
activity coefficient ([2]; 328.15 K): 6.58 ± 0.57
activity coefficient ([2]; 338.15 K): 6.41 ± 0.55
activity coefficient ([2]; 348.15 K): 6.25 ± 0.54
activity coefficient ([2]; 358.15 K): 6.07 ± 0.52

C=CCCCCC [1-heptene] + CC[N+](C)(CC)CCOC.O=S(=O)([N-]S(=O)(=O)C(F)(F)F)C(F)(F)F
activity coefficient ([2]; 318.15 K): 13.3 ± 1.2
activity coefficient ([2]; 328.15 K): 12.6 ± 1.1
activity coefficient ([2]; 338.15 K): 11.9 ± 1
activity coefficient ([2]; 348.15 K): 11.4 ± 1
activity coefficient ([2]; 358.15 K): 10.9 ± 0.9
